Source: patent EP0074307A1, “Mixed bromo-iodo benzene compounds and contrast products containing them” (Société dite: GUERBET S.A., priority 1981, dated 1983)

Experiments:
[1] = tested on: complément; assay: Complement activation (hemolytic concentration 50, CH 50); type: biochemical; design: unit not given here; details: higher CH 50 = less complement activation, better tolerance
From the text: Les travaux d'Elliott C. Lasser (Investig. Radiol., 1974, 9, 4 6A) ont montré que les produits de contraste activent le complément, qui est un ensemble de protéines sériques dont l'activation peut conduire à des réactions anaphylactiques graves.
La mesure de cette activation est effectuée par la détermination de la concentration hémolytique 50 désignée CH 50. On estime que les produits moins activateurs du complément, c'est-à-dire ayant une CH 50 plus élevée , provoquent moins d'effets secondaires de type anaphylactiques et présentent donc une meilleure tolérance.

[2] = X-ray opacity measured via film densitometry, relative to Hexabrix; type: physicochemical; details: aqueous solutions of methylglucamine salts, same number of moles as Hexabrix (32 % iodine), X-ray source 70 kV
From the text: L'opacité a été mesurée indirectement à l'aide de l'impression produite sur un film photographique par un faisceau de rayons X traversant une cuve contenant une solution aqueuse des composés. La transparence du film après développement a été mesurée à l'aide d'un densi- tomètre optique. Dans chaque cas, la mesure a été effectuée sur le même film et avec la même source de rayons X (70 kV) par comparaison avec un produit opacifiant servant de référence.
Comme produit de référence, on a utilisé l'Hexa- brix qui est une solution de sels de sodium et de méthyl- glucamine de l'acide ioxaglique à 32 % en iode.
Les composés selon l'invention ont été testés sous forme de solutions aqueuses de leurs sels de méthyl- glucamine contenant le même nombre de moles de composés que l'Hexabrix.

CNC(=O)c1c(Br)c(C(=O)NCC(=O)Nc2c(I)cc(I)c(C(=O)O)c2I)c(Br)c(N(C)C(C)=O)c1Br [compound 8]
CH 50 [1]: 11,5

CNC(=O)c1c(Br)c(C(=O)NCC(=O)Nc2c(I)c(C(=O)O)c(I)c(C(=O)NCCO)c2I)c(Br)c(N(C)C(C)=O)c1Br [Composé 2, acide triiodo-2,4,6 N-hydroxyéthylcarbamoyl-3 (tribromo-2,4,6 N-méthylcarbamoyl-3 N-méthyl N-acétylamino-5 benzoyl) glycylamino-5 benzoïque]
Opacité relative/Hexabrix [2]: 0,92 | CH 50 [1]: 20,8

CNC(=O)c1c(I)c(NC(=O)CNC(=O)c2c(Br)cc(Br)c(N(C)C(C)=O)c2Br)c(I)c(C(=O)O)c1I [compound 5]
Opacité relative/Hexabrix [2]: 0,92 | CH 50 [1]: 7,4

CNC(=O)c1c(Br)c(C(=O)NCCC(=O)Nc2c(I)cc(I)c(C(=O)O)c2I)c(Br)c(N(C)C(C)=O)c1Br [compound 12]
CH 50 [1]: 11,0

CNC(=O)c1c(I)c(NC(=O)CNC(=O)c2c(I)cc(I)c(N(C)C(C)=O)c2I)c(I)c(C(=O)O)c1I [Analogue complètement iodé du composé 5, reference compound]
CH 50 [1]: 3,8

CNC(=O)c1c(I)c(C(=O)NCC(=O)Nc2c(Br)cc(Br)c(C(=O)O)c2Br)c(I)c(N(C)C(C)=O)c1I [compound 7]
CH 50 [1]: 10,0

CNC(=O)c1c(Br)c(C(=O)NCCCC(=O)Nc2c(I)c(C(=O)O)c(I)c(C(=O)NCCO)c2I)c(Br)c(N(C)C(C)=O)c1Br [compound 13]
CH 50 [1]: 15,3

CNC(=O)c1c(I)c(C(=O)NCC(=O)Nc2c(Br)c(C(=O)O)c(Br)c(C(=O)NCCO)c2Br)c(I)c(N(C)C(C)=O)c1I [compound 1, acide tribromo-2,4,6 N-hydroxyéthylcarbamoyl-3 (triiodo-2,4,6 N-méthylcarbamoyl-3 N-méthyl N-acétylamino-5 benzoyl) glycylamino-5 benzoique]
Opacité relative/Hexabrix [2]: 0,91 | CH 50 [1]: 20,2
